Test results as given in patent US20070116829A1, “Pharmaceutical Composition with High-Potency Sweetener” (THE COCA-COLA COMPANY, priority 2005, published 2007).

Legend:
[1] = Rate of dissolution in H2O at 25° C. of rebaudioside A polymorph and amorphous forms; type: physicochemical
[2] = type: physicochemical
Protocol: A solution of rebaudioside A (>97% pure by HPLC) was prepared in double distilled water (12.5 gm in 50 mL, 25% concentration) by stirring the mixture at 40° C. for 5 minutes. An amorphous form of rebaudioside A was formed by immediately using the clear solution for spray drying with the Lab-Plant spray drier SD-04 instrument (Lab-Plant Ltd., West Yorkshire, U.K.). The solution was fed through the feed pump into the nozzle atomizer which atomized it into a spray of droplets with the help of a constant flow of nitrogen/air. […] This dry powder (11-12 g, H2O 6.74%) was discharged continuously from the drying chamber and was collected in a bottle.

Structure (SMILES): C=C1C[C@@]23CC[C@H]4[C@@](C)(CCC[C@@]4(C)C(=O)O[C@@H]4O[C@H](CO)[C@@H](O)[C@H](O)[C@H]4O)[C@@H]2CC[C@]1(O[C@@H]1O[C@H](CO)[C@@H](O)[C@H](O[C@@H]2O[C@H](CO)[C@@H](O)[C@H](O)[C@H]2O)[C@H]1O[C@@H]1O[C@H](CO)[C@@H](O)[C@H](O)[C@H]1O)C3 [Form 3, rebaudioside A]
- Rate of dissolution in H2O at 25° C. (in words) [1]: High
- Rate of dissolution in H2O at 25° C. ([1]; per 5 minutes): (>30%/5 %/5 minutes

Structure (SMILES): C=C1C[C@@]23CC[C@H]4[C@@](C)(CCC[C@@]4(C)C(=O)O[C@@H]4O[C@H](CO)[C@@H](O)[C@H](O)[C@H]4O)[C@@H]2CC[C@]1(O[C@@H]1O[C@H](CO)[C@@H](O)[C@H](O[C@@H]2O[C@H](CO)[C@@H](O)[C@H](O)[C@H]2O)[C@H]1O[C@@H]1O[C@H](CO)[C@@H](O)[C@H](O)[C@H]1O)C3 [Form 1, rebaudioside A]
- Rate of dissolution in H2O at 25° C. (in words) [1]: Very low
- Rate of dissolution in H2O at 25° C. ([1]; per 60 minutes): (<0.2%/60 %/60 minutes

Structure (SMILES): C=C1C[C@@]23CC[C@H]4[C@@](C)(CCC[C@@]4(C)C(=O)O[C@@H]4O[C@H](CO)[C@@H](O)[C@H](O)[C@H]4O)[C@@H]2CC[C@]1(O[C@@H]1O[C@H](CO)[C@@H](O)[C@H](O[C@@H]2O[C@H](CO)[C@@H](O)[C@H](O)[C@H]2O)[C@H]1O[C@@H]1O[C@H](CO)[C@@H](O)[C@H](O)[C@H]1O)C3 [Form 4, rebaudioside A]
- solubility in water at room temperature [2]: > 35.0%
- Rate of dissolution in H2O at 25° C. (in words) [1]: High
- Rate of dissolution in H2O at 25° C. ([1]; per 5 minutes): (>35.0%/5 %/5 minutes

Structure (SMILES): C=C1C[C@@]23CC[C@H]4[C@@](C)(CCC[C@@]4(C)C(=O)O[C@@H]4O[C@H](CO)[C@@H](O)[C@H](O)[C@H]4O)[C@@H]2CC[C@]1(O[C@@H]1O[C@H](CO)[C@@H](O)[C@H](O[C@@H]2O[C@H](CO)[C@@H](O)[C@H](O)[C@H]2O)[C@H]1O[C@@H]1O[C@H](CO)[C@@H](O)[C@H](O)[C@H]1O)C3 [Form 2, rebaudioside A]
- Rate of dissolution in H2O at 25° C. (in words) [1]: Intermediate
- Rate of dissolution in H2O at 25° C. ([1]; per 5 minutes): (<30%/5 %/5 minutes
